Data from a melting point compilation (Tetko et al.; mined from patent text by program, amines drawn as free bases though some values may be those of a salt).

First: COc1ccc(C(=O)Nc2ccccc2)cc1NC(=S)Nc1ccc(OC)c(OC)c1
Second: COc1cc(CNC(=O)c2ccccc2)cc(OC)c1OC
The melting point of the first is higher: 170 to 171 °C for the first, 113 to 115 °C for the second.

Compared with `COc1ccc(C2c3cccc(O)c3C(=O)c3c(O)cccc32)c(OC)c1`, `COc1cccc(OC)c1-c1ccc(C[C@H](NC(=O)c2c(Cl)ccc(Br)c2Cl)C(=O)O)cc1` is higher in melting point: 152 °C for the first, 235 °C for the second.

Compared with `O=[N+]([O-])c1cn2c(n1)O[C@@H](COc1ccc(N3CCN(Cc4ccc(Oc5ccc(C(F)(F)F)cn5)cc4)CC3)cc1)CC2`, `Cn1cc(C(=O)CN2CCN(c3ncccn3)CC2)cc1C(=O)c1ccc([N+](=O)[O-])cc1` is lower in melting point: 229 to 230 °C for the first, 164 to 166 °C for the second.

First: CCCc1c(OCCCOc2cccc3ccccc23)ccc2c1OC(CCC(=O)O)(CCC(=O)O)CC2=O
Second: COc1ccc(/C=C/CCCCOc2ccc(C(=O)CCCC(=O)O)cc2CCC(=O)O)cc1
The melting point of the first is higher: 164 to 167 °C for the first, 113 to 114 °C for the second.

First: CCC1COC(NC(=O)c2ccc(Cl)c(Cl)c2)C2CCCCN12 (stereo not drawn)
Second: Cc1nccn1-c1nc(-c2ccc(Cl)c(Cl)c2)c(CCCO)o1
The melting point of the first is higher: 214 °C for the first, 140 to 141 °C for the second.

First: COc1ccc(-c2ccc3c(c2)CCC3=O)c2c1OCCO2
Second: CCOC(=O)N1CCC(c2ccc3nc(-c4ccc(S(C)(=O)=O)cc4F)oc3c2)CC1
The melting point of the first is higher: 168 °C for the first, 154 to 158 °C for the second.

Compared with `Cc1c(SCCCSc2ccncc2)ccnc1CSc1ccncc1`, `OCCn1nc(-c2ccc(F)cc2)c(-c2ccncc2)c1C1CC1` is higher in melting point: 116 to 118 °C for the first, 155 to 157 °C for the second.

Compared with `CCOCc1nc2c(N)nc3cc(OCc4ccc(C)cc4)ccc3c2n1CC(C)C`, `CCOCc1nc2c(N)nc3cc(OCCCCCCNC(C)=O)ccc3c2n1CC(C)(C)NC(=O)NC(C)C` is lower in melting point: 209 to 210 °C for the first, 90 to 110 °C for the second.

First: O=[N+]([O-])c1ccc(F)c(CNCCO)c1
Second: CCOc1ccc([N+](=O)[O-])cn1
The melting point of the first is higher: 93 to 94 °C for the first, 85 to 88 °C for the second.

First: C=CCP(=O)(c1ccccc1)c1ccccc1
Second: c1ccc(CSc2ccccc2C2=NOCCO2)cc1
The melting point of the first is higher: 94 to 96 °C for the first, 73 to 77 °C for the second.

First: Cc1cccc(NC(=O)NCC(=O)N(CC(=O)OC(C)(C)C)c2ccccc2Oc2ccccc2)c1
Second: CN(C(=O)CNC(=O)OC(C)(C)C)c1ccc(OCC(=O)O)cc1
The melting point of the first is higher: 204 °C for the first, 146 to 155 °C for the second.

First: Nc1ccccc1C(=O)c1ccc(Br)cc1
Second: COC(=O)c1ccc(OCCCc2ccccc2)cc1
The melting point of the first is higher: 104 to 106 °C for the first, 61 to 61.5 °C for the second.

Compared with `CC1(C)C=C(n2cncn2)c2cccc(OCc3c(Cl)ccc(S(=O)(=O)N4CCC[C@H]4C(=O)O)c3Cl)c2N1`, `COc1ccc2[nH]c(C(=O)N[C@H]3CCN(C(=O)c4cc(Cl)cc(Cl)c4)[C@H](Cc4ccccc4)C3)cc2c1` (relative stereo) is higher in melting point: 146 °C for the first, 251 °C for the second.

First: CC(CC(=O)O)C(=O)c1ccc(-n2ccnc2)cc1 (stereo not drawn)
Second: Cc1ccnn1-c1ccc(NC(=O)c2ccc(Cl)cc2)cc1
The melting point of the first is lower: 181 to 182 °C for the first, 189 to 191 °C for the second.

First: O=C1CC2(CCCC2)C(=O)N1c1ccncc1
Second: CC#CCOc1ccc(S(=O)(=O)N(C)C2(C(=O)O)CCCCC2)cc1
The melting point of the first is lower: 100 to 103 °C for the first, 124 to 126 °C for the second.

First: O=C1CC(c2ccc(F)cc2)CC(=O)O1
Second: CNC(=O)c1cc(-n2cnn(Cc3ccc(F)cc3)c2=O)n[nH]1
The melting point of the first is lower: 99 to 104 °C for the first, 268 to 269 °C for the second.

Compared with `CC(=O)Nc1cccc(-n2cccc2)c1`, `CC(=O)Nc1cccc2c1C(=O)c1ccccc1C2=O` is higher in melting point: 134 to 136 °C for the first, 221 °C for the second.

Compared with `COC(=O)C(=CNc1ncnc2ccc(NC(=O)CC(C)(C)C)cc12)C(=O)OC`, `CSc1cnc(OCCOc2ncnc(NS(=O)(=O)c3ccc(C(C)(C)C)cc3)c2Br)nc1` is lower in melting point: 196 to 198 °C for the first, 120 to 121 °C for the second.

First: Cc1nc2c(Cc3ccccc3)cnn2c(=O)[nH]1
Second: CCc1cn(C2CC(O)C(CCCCc3ccccc3)O2)c(=O)[nH]c1=O (stereo not drawn)
The melting point of the first is higher: 225 °C for the first, 160 to 162 °C for the second.

First: CCCCn1ccc(-c2ccc(Oc3ccc(C(=O)O)cc3)cc2)c(Cl)c1=O
Second: Cc1cn(-c2ccc(C(=N)N)cc2)c(=O)n1-c1ccc(CCC(=O)OC(C)C)cc1
The melting point of the first is higher: 280 °C for the first, 246 to 249 °C for the second.

First: CCN(C(=O)c1ccccc1C(=O)c1ccc(F)cc1)C(C)(C)CNS(=O)(=O)c1ccc(C)cc1
Second: CCCCc1nn(-c2ccccc2C(F)(F)F)c(=O)n1Cc1ccc(-c2cc(CCC)ccc2S(=O)(=O)NC(=O)c2ccccc2Cl)cc1F
The melting point of the first is higher: 154 to 156 °C for the first, 79 to 82 °C for the second.

Compared with `N#CC=CNCC(=O)c1cccc(Cl)c1Cl`, `CC(C)(C)OC(=O)C=Cc1ccc2c(c1)OCO2` is lower in melting point: 125 to 127 °C for the first, 82 to 83 °C for the second.

First: CC(C)Cc1ccc2nc(Cl)cn2n1
Second: COc1ccc2c(c1)c(CC(C)NC(=O)C(F)(F)F)c1n2CCC1 (racemic)
The melting point of the first is lower: 71 to 72.5 °C for the first, 131 to 133 °C for the second.

Compared with `COc1ccc(-c2ccc(-c3cc(NC(Cc4ccccc4)C(=O)O)ncn3)cc2)cc1` (stereo not drawn), `O=C(O)[C@H](Cc1ccc(-c2ccccc2)cc1)NCP(=O)(Oc1ccccc1)Oc1ccccc1` is lower in melting point: 123 to 125 °C for the first, 118 to 119 °C for the second.

First: COC(=O)C(C)(C)OCc1cc2cc(C(F)(F)F)ccc2n1S(=O)(=O)c1cc(C)cc(C)c1
Second: CCN(Cc1sc(-c2ccc(C(F)(F)F)cc2)nc1C)c1cc(C)c(OCC(=O)O)c(C)c1
The melting point of the first is lower: 132 to 134 °C for the first, 161 to 162 °C for the second.

Compared with `O=C(O)c1c(C(F)(F)F)nc2cc(C(F)(F)F)ccc2c1O`, `O=C(O)C(OCc1ccc(Cl)cc1)(C(F)(F)F)C(F)(F)F` is lower in melting point: 240 °C for the first, 98 to 99 °C for the second.

Compared with `O=C(O)CCCCc1ccc(NS(=O)(=O)c2ccc(Cl)cc2)cn1`, `COc1nc(C)cnc1NS(=O)(=O)c1cccnc1-c1ccc(NC(C)=O)cc1` is higher in melting point: 145 to 147 °C for the first, 208 to 209 °C for the second.

First: Cc1nc(Cn2c(=O)sc3cc(F)c(N=C=S)cc32)no1
Second: CCOC(=O)c1cc(=O)nc2n1-c1ccc(C)cc1OC2
The melting point of the first is higher: 168 to 170 °C for the first, 136 to 137 °C for the second.

First: CNC(=O)c1ccccc1Nc1nc(Nc2ccc3c(c2)CCC(NCC(F)F)CC3)ncc1Cl (stereo not drawn)
Second: COC(=O)C=Cc1ccc(OCc2nc(-c3ccccc3)oc2C)c(F)c1
The melting point of the first is higher: 182 to 183 °C for the first, 167 to 168 °C for the second.

First: CC(C)(C)OC(=O)NCc1ccc(-c2ccc(O)cc2)cc1
Second: CCOC(=O)/C=C/c1cnn(Cc2ccc(OCc3nc(-c4ccccc4)oc3C)cc2)c1
The melting point of the first is higher: 147 to 149 °C for the first, 112 to 113 °C for the second.

First: Cc1[nH]c(C)c2c1C(C)(C)CC2(C)C#N (stereo not drawn)
Second: CN=C1C2=C(C=CC1CN(C)c1ccc(C(=O)OC)cc1)C(C)(C)CCC2(C)C (stereo not drawn)
The melting point of the first is lower: 130 to 140 °C for the first, 275 to 280 °C for the second.

First: O=C(O)C(ON=c1c2nccc3cccc(c32)n2cccc12)c1ccccc1 (stereo not drawn)
Second: Cc1nc2ccc(OCCCN3CCC(OC(c4ccccc4)c4ccccc4)CC3)nn2n1
The melting point of the first is higher: 200 °C for the first, 134 to 136 °C for the second.

First: Cc1c(=O)o[n-][n+]1CCSC12CC3CC(CC(C3)C1)C2
Second: CC1(C)Oc2ccsc2C(N2CCCC2=O)C1O (stereo not drawn)
The melting point of the first is lower: 92 to 93 °C for the first, 154 to 155 °C for the second.

First: OCC1=CCOc2ccc(Cl)cc21
Second: [O-][N+]1=C(c2ccccc2F)c2cc(Cl)ccc2-n2cnc(N3CCOCC3)c2C1
The melting point of the first is lower: 85 to 88 °C for the first, 200 to 203 °C for the second.

First: CN1C(=O)SC(C)(C)[C@@H]1[C@@H](CS(=O)(=O)c1ccc(Oc2ccc(OC(F)(F)F)cc2)cc1)N(O)C=O
Second: CCCCC(=O)Nc1ccc(C(F)(F)F)c(-n2nc(CCCC)n(Cc3ccc(-c4ccccc4S(=O)(=O)NC(=O)c4ccccc4Cl)cc3F)c2=O)c1
The melting point of the first is lower: 84 to 86 °C for the first, 145 to 147 °C for the second.

First: CC(c1oc2ccccc2c(=O)c1-c1cc(F)cc(F)c1)n1cnc2c(N)ncnc21 (stereo not drawn)
Second: O=C1C(=O)c2ccccc2C2=C1SCC1(CCN(C(=O)c3cc4ccccc4s3)CC1)O2
The melting point of the first is higher: 267 to 269 °C for the first, 110 to 112 °C for the second.

`CN(C)CCc1[nH]c2ccccc2c1CSC1=NCCS1` and `O=C1Cc2cccc(Oc3ccccc3)c2N1` cannot be ordered by melting point: 140 to 143 °C for the first, 135 to 146 °C for the second.

Compared with `Cc1c(C(=O)O)cnn1-c1ccc(F)c(F)c1`, `Cc1c(C)n(CC2CC2C)c2c(OCc3ccc(F)cc3F)nncc12` (stereo not drawn) is lower in melting point: 148 °C for the first, 101 to 102 °C for the second.

First: COc1cc2cc3c(Cl)ncnc3cc2cc1OCCN1CCOCC1
Second: Cc1cc(CCCCCOc2c(Cl)cc(-c3noc(C(F)(F)F)n3)cc2Cl)on1
The melting point of the first is higher: 166 to 168 °C for the first, 42 to 43 °C for the second.

Compared with `O=[N+]([O-])c1ccc2[nH]c(/C=C/c3ccncc3)nc2c1`, `C=C=COc1ccc2ccc(OC=C=C)cc2c1` is lower in melting point: greater than 280 °C for the first, 80.5 to 83.5 °C for the second.

First: O=C(CCCCCCC(c1ccccc1)(c1ccccc1)c1ccccc1)NO
Second: FC(F)(F)C(F)(F)CCCSCCCCCOc1ccc(C2=C(c3ccccc3)CCCc3ccccc32)cc1
The melting point of the first is higher: 100 to 103 °C for the first, 84 to 85 °C for the second.

First: CCCNC(=O)[C@H](C)C[C@H](O)[C@H](CC1CCCCC1)NC(=O)[C@H](Cc1cscn1)NC(=O)OC(C)(C)C
Second: CC(C)(C)OC(=O)Nc1cc(N2CCC(OCCO)CC2)c(I)cc1[N+](=O)[O-]
The melting point of the first is higher: 182 to 184 °C for the first, 64 to 65 °C for the second.

First: CCCCNS(=O)(=O)c1ccc(N2CCC3(CC2)OCCO3)cc1
Second: CCCCCCCCCCCCCCOc1ccc(CC(CO)CC2(C)OCCO2)cc1 (stereo not drawn)
The melting point of the first is higher: 122 to 124 °C for the first, 28 to 29 °C for the second.

Compared with `O=C(O)c1c[nH]c2c1C(=O)CCC2`, `O=C1CCCN1[C@@H]1c2ccccc2OCC[C@H]1O` (relative stereo) is lower in melting point: 269 to 270 °C for the first, 151 to 153 °C for the second.

Compared with `CSc1ccc2c(O)c(CS(C)(=O)=O)cnc2c1`, `CCC(CC)COC(=O)c1ccc(N)cc1` is lower in melting point: 290 to 292 °C for the first, 52 to 53 °C for the second.

First: CCOC(=O)CCCn1c(Nc2cnc(N(C)C)cc2C)nc2c(Cl)ccc(C(CC)CC)c21
Second: CC(C)OC(=O)c1cc(-n2c(=O)[nH]c3c(c2=O)CCO3)c(F)cc1Cl
The melting point of the first is lower: 158 to 159 °C for the first, 213 to 215 °C for the second.

First: Cc1cc2c(-c3cccc(C(F)(F)F)c3)nc(C#N)nc2s1
Second: CC(Oc1cccc2ccoc12)C(N)=NO (stereo not drawn)
The melting point of the first is higher: 121 to 122 °C for the first, 92 to 94 °C for the second.

First: Cc1cc(=O)[nH]nc1-c1ccc2c(c1)CCC1(CCN(C3CCC3)CC1)O2
Second: NC1CCn2c(CCc3ccccc3)nc3cccc1c32 (stereo not drawn)
The melting point of the first is higher: 270 to 272 °C for the first, 43.6 to 45.6 °C for the second.

Compared with `CNC(=NC(=O)OC)N(C)C`, `CCCCCCCCNC(=O)[C@@H]1C[C@H]1c1ccc([N+](=O)[O-])cc1` (relative stereo) is higher in melting point: 80 to 85 °C for the first, 126 to 129 °C for the second.
